Laboratory results reported in the supplement of paper PMC13380429.

Columns and labels:
Conditions in all cases: 72 h
Caco-2 [1] = test: cell viability relative to DMSO; higher = less toxic
HepG2 [2] = test: as above
U2OS [3] = test: as above
Vero E6 [4] = test: as above
Caco-2 [5] = test: relative viability EC50 (midpoint between 100% and the lowest measured viability); higher = less toxic
HepG2 [6] = test: as above
U2OS [7] = test: as above
Vero E6 [8] = test: as above
Caco-2 [9] = test: drug sensitivity score (DSS) for viability; higher = more toxic; extreme values may be limits of the assay
HepG2 [10] = test: as above
U2OS [11] = test: as above
Vero E6 [12] = test: as above
Calu-3 [13] = test: cell viability relative to DMSO; higher = less toxic
Calu-3 [14] = test: drug sensitivity score (DSS) for viability; higher = more toxic; extreme values may be limits of the assay

## CCS(=O)(=O)N1CC(CC#N)(n2cc(-c3ncnc4[nH]ccc34)cn2)C1 [baricitinib]
Caco-2 [1]; 1 nM
  cell viability: 95.6%
Caco-2 [1]; 10 nM
  cell viability: 102%
Caco-2 [1]; 100 nM
  cell viability: 92.9%
Caco-2 [1]; 1000 nM
  cell viability: 97%
Caco-2 [1]; 10000 nM
  cell viability: 99.7%
HepG2 [2]; 1 nM
  cell viability: 98.6%
HepG2 [2]; 10 nM
  cell viability: 106%
HepG2 [2]; 100 nM
  cell viability: 91.1%
HepG2 [2]; 1000 nM
  cell viability: 107%
HepG2 [2]; 10000 nM
  cell viability: 90.3%
U2OS [3]; 1 nM
  cell viability: 95.4%
U2OS [3]; 10 nM
  cell viability: 98.5%
U2OS [3]; 100 nM
  cell viability: 95.1%
U2OS [3]; 1000 nM
  cell viability: 94.4%
U2OS [3]; 10000 nM
  cell viability: 96.4%
Vero E6 [4]; 1 nM
  cell viability: 98.6%
Vero E6 [4]; 10 nM
  cell viability: 100%
Vero E6 [4]; 100 nM
  cell viability: 102%
Vero E6 [4]; 1000 nM
  cell viability: 102%
Vero E6 [4]; 10000 nM
  cell viability: 101%
Caco-2 [5]
  relative viability EC50: > 10 µM
HepG2 [6]
  relative viability EC50: > 10 µM
U2OS [7]
  relative viability EC50: > 10 µM
Vero E6 [8]
  relative viability EC50: > 10 µM
Caco-2 [9]
  drug sensitivity score: 0
HepG2 [10]
  drug sensitivity score: 0
U2OS [11]
  drug sensitivity score: 0
Vero E6 [12]
  drug sensitivity score: 0

## COc1cc(CNC(=O)CCCC/C=C/C(C)C)ccc1O [capsaicin]
Caco-2 [1]; 1 nM
  cell viability: 116%
Caco-2 [1]; 10 nM
  cell viability: 90.9%
Caco-2 [1]; 100 nM
  cell viability: 103%
Caco-2 [1]; 1000 nM
  cell viability: 91.2%
Caco-2 [1]; 10000 nM
  cell viability: 107%
U2OS [3]; 1 nM
  cell viability: 106%
U2OS [3]; 10 nM
  cell viability: 100%
U2OS [3]; 100 nM
  cell viability: 101%
U2OS [3]; 1000 nM
  cell viability: 98.4%
U2OS [3]; 10000 nM
  cell viability: 100%
Vero E6 [4]; 1 nM
  cell viability: 96.4%
Vero E6 [4]; 10 nM
  cell viability: 100%
Vero E6 [4]; 100 nM
  cell viability: 106%
Vero E6 [4]; 1000 nM
  cell viability: 107%
Vero E6 [4]; 10000 nM
  cell viability: 102%
Caco-2 [5]
  relative viability EC50: > 10 µM
U2OS [7]
  relative viability EC50: > 10 µM
Vero E6 [8]
  relative viability EC50: > 10 µM
Caco-2 [9]
  drug sensitivity score: 0
U2OS [11]
  drug sensitivity score: 0
Vero E6 [12]
  drug sensitivity score: 0

## CC(=O)N[C@H](Cc1ccc2ccccc2c1)C(=O)N[C@H](Cc1ccc(Cl)cc1)C(=O)N[C@H](Cc1cccnc1)C(=O)N[C@@H](CO)C(=O)N[C@@H](Cc1ccc(O)cc1)C(=O)N[C@H](CCCNC(N)=O)C(=O)N[C@@H](CC(C)C)C(=O)N[C@@H](CCCNC(=N)N)C(=O)N1CCC[C@H]1C(=O)N[C@H](C)C(N)=O [cetrorelix]
Caco-2 [1]; 1 nM
  cell viability: 117%
Caco-2 [1]; 10 nM
  cell viability: 95.5%
Caco-2 [1]; 100 nM
  cell viability: 110%
Caco-2 [1]; 1000 nM
  cell viability: 114%
Caco-2 [1]; 10000 nM
  cell viability: 104%
HepG2 [2]; 1 nM
  cell viability: 102%
HepG2 [2]; 10 nM
  cell viability: 93.7%
HepG2 [2]; 100 nM
  cell viability: 101%
HepG2 [2]; 1000 nM
  cell viability: 97.8%
HepG2 [2]; 10000 nM
  cell viability: 83.1%
U2OS [3]; 1 nM
  cell viability: 102%
U2OS [3]; 10 nM
  cell viability: 93.6%
U2OS [3]; 100 nM
  cell viability: 96.9%
U2OS [3]; 1000 nM
  cell viability: 95.1%
U2OS [3]; 10000 nM
  cell viability: 100%
Vero E6 [4]; 1 nM
  cell viability: 105%
Vero E6 [4]; 10 nM
  cell viability: 101%
Vero E6 [4]; 100 nM
  cell viability: 105%
Vero E6 [4]; 1000 nM
  cell viability: 99.3%
Vero E6 [4]; 10000 nM
  cell viability: 90.3%
Caco-2 [5]
  relative viability EC50: > 10 µM
HepG2 [6]
  relative viability EC50: > 10 µM
U2OS [7]
  relative viability EC50: > 10 µM
Vero E6 [8]
  relative viability EC50: > 10 µM
Caco-2 [9]
  drug sensitivity score: 0
HepG2 [10]
  drug sensitivity score: 0.6
U2OS [11]
  drug sensitivity score: 0
Vero E6 [12]
  drug sensitivity score: 0

## O=C(O)/C=C(/CC(=O)O)C(=O)O [cis-aconitic-acid]
Caco-2 [1]; 1 nM
  cell viability: 88.4%
Caco-2 [1]; 10 nM
  cell viability: 97.1%
Caco-2 [1]; 100 nM
  cell viability: 98.6%
Caco-2 [1]; 1000 nM
  cell viability: 90%
Caco-2 [1]; 10000 nM
  cell viability: 93.4%
HepG2 [2]; 1 nM
  cell viability: 105%
HepG2 [2]; 10 nM
  cell viability: 105%
HepG2 [2]; 100 nM
  cell viability: 91.6%
HepG2 [2]; 1000 nM
  cell viability: 113%
HepG2 [2]; 10000 nM
  cell viability: 98.9%
U2OS [3]; 1 nM
  cell viability: 98.3%
U2OS [3]; 10 nM
  cell viability: 99.1%
U2OS [3]; 100 nM
  cell viability: 101%
U2OS [3]; 1000 nM
  cell viability: 96.7%
U2OS [3]; 10000 nM
  cell viability: 103%
Vero E6 [4]; 1 nM
  cell viability: 99%
Vero E6 [4]; 10 nM
  cell viability: 103%
Vero E6 [4]; 100 nM
  cell viability: 94.9%
Vero E6 [4]; 1000 nM
  cell viability: 97.8%
Vero E6 [4]; 10000 nM
  cell viability: 109%
Caco-2 [5]
  relative viability EC50: > 10 µM
HepG2 [6]
  relative viability EC50: > 10 µM
U2OS [7]
  relative viability EC50: > 10 µM
Vero E6 [8]
  relative viability EC50: > 10 µM
Caco-2 [9]
  drug sensitivity score: 0
HepG2 [10]
  drug sensitivity score: 0
U2OS [11]
  drug sensitivity score: 0
Vero E6 [12]
  drug sensitivity score: 0

## CC(C)NCC(O)c1ccccc1Cl (centres undefined) [clorprenaline]
Caco-2 [1]; 1 nM
  cell viability: 99.7%
Caco-2 [1]; 10 nM
  cell viability: 104%
Caco-2 [1]; 100 nM
  cell viability: 94.7%
Caco-2 [1]; 1000 nM
  cell viability: 93.7%
Caco-2 [1]; 10000 nM
  cell viability: 102%
HepG2 [2]; 1 nM
  cell viability: 101%
HepG2 [2]; 10 nM
  cell viability: 102%
HepG2 [2]; 100 nM
  cell viability: 93.4%
HepG2 [2]; 1000 nM
  cell viability: 97.3%
HepG2 [2]; 10000 nM
  cell viability: 113%
U2OS [3]; 1 nM
  cell viability: 94%
U2OS [3]; 10 nM
  cell viability: 103%
U2OS [3]; 100 nM
  cell viability: 95.6%
U2OS [3]; 1000 nM
  cell viability: 102%
U2OS [3]; 10000 nM
  cell viability: 103%
Vero E6 [4]; 1 nM
  cell viability: 99.8%
Vero E6 [4]; 10 nM
  cell viability: 95%
Vero E6 [4]; 100 nM
  cell viability: 99.8%
Vero E6 [4]; 1000 nM
  cell viability: 99.6%
Vero E6 [4]; 10000 nM
  cell viability: 106%
Caco-2 [5]
  relative viability EC50: > 10 µM
HepG2 [6]
  relative viability EC50: > 10 µM
U2OS [7]
  relative viability EC50: > 10 µM
Vero E6 [8]
  relative viability EC50: > 10 µM
Caco-2 [9]
  drug sensitivity score: 0
HepG2 [10]
  drug sensitivity score: 0
U2OS [11]
  drug sensitivity score: 0
Vero E6 [12]
  drug sensitivity score: 0

## O=C(O)[C@@H](S)[C@@H](S)C(=O)O [dimercaptosuccinic-acid]
Caco-2 [1]; 1 nM
  cell viability: 107%
Caco-2 [1]; 10 nM
  cell viability: 90.7%
Caco-2 [1]; 100 nM
  cell viability: 94.2%
Caco-2 [1]; 1000 nM
  cell viability: 95.8%
Caco-2 [1]; 10000 nM
  cell viability: 110%
U2OS [3]; 1 nM
  cell viability: 101%
U2OS [3]; 10 nM
  cell viability: 98.2%
U2OS [3]; 100 nM
  cell viability: 101%
U2OS [3]; 1000 nM
  cell viability: 101%
U2OS [3]; 10000 nM
  cell viability: 105%
Vero E6 [4]; 1 nM
  cell viability: 99.7%
Vero E6 [4]; 10 nM
  cell viability: 102%
Vero E6 [4]; 100 nM
  cell viability: 100%
Vero E6 [4]; 1000 nM
  cell viability: 101%
Vero E6 [4]; 10000 nM
  cell viability: 104%
Caco-2 [5]
  relative viability EC50: > 10 µM
U2OS [7]
  relative viability EC50: > 10 µM
Vero E6 [8]
  relative viability EC50: > 10 µM
Caco-2 [9]
  drug sensitivity score: 0
U2OS [11]
  drug sensitivity score: 0
Vero E6 [12]
  drug sensitivity score: 0

## N=C(Nc1ccccc1)Nc1ccccc1 [diphenylguanidine]
Caco-2 [1]; 1 nM
  cell viability: 92.4%
Caco-2 [1]; 10 nM
  cell viability: 93.5%
Caco-2 [1]; 100 nM
  cell viability: 91.5%
Caco-2 [1]; 1000 nM
  cell viability: 94.2%
Caco-2 [1]; 10000 nM
  cell viability: 107%
HepG2 [2]; 1 nM
  cell viability: 117%
HepG2 [2]; 10 nM
  cell viability: 92.6%
HepG2 [2]; 100 nM
  cell viability: 103%
HepG2 [2]; 1000 nM
  cell viability: 101%
HepG2 [2]; 10000 nM
  cell viability: 101%
U2OS [3]; 1 nM
  cell viability: 98.4%
U2OS [3]; 10 nM
  cell viability: 98%
U2OS [3]; 100 nM
  cell viability: 95.3%
U2OS [3]; 1000 nM
  cell viability: 100%
U2OS [3]; 10000 nM
  cell viability: 106%
Vero E6 [4]; 1 nM
  cell viability: 100%
Vero E6 [4]; 10 nM
  cell viability: 95.1%
Vero E6 [4]; 100 nM
  cell viability: 103%
Vero E6 [4]; 1000 nM
  cell viability: 91.8%
Vero E6 [4]; 10000 nM
  cell viability: 104%
Caco-2 [5]
  relative viability EC50: > 10 µM
HepG2 [6]
  relative viability EC50: > 10 µM
U2OS [7]
  relative viability EC50: > 10 µM
Vero E6 [8]
  relative viability EC50: > 10 µM
Caco-2 [9]
  drug sensitivity score: 0
HepG2 [10]
  drug sensitivity score: 0
U2OS [11]
  drug sensitivity score: 0
Vero E6 [12]
  drug sensitivity score: 0

## C[C@H](Nc1ncnc2nc[nH]c12)c1cc2cccc(Cl)c2c(=O)n1-c1ccccc1 [duvelisib]
Caco-2 [1]; 1 nM
  cell viability: 99.8%
Caco-2 [1]; 10 nM
  cell viability: 95.4%
Caco-2 [1]; 100 nM
  cell viability: 91.7%
Caco-2 [1]; 1000 nM
  cell viability: 84.1%
Caco-2 [1]; 10000 nM
  cell viability: 52.5%
Calu-3 [13]; 1 nM
  cell viability: 98.6%
Calu-3 [13]; 10 nM
  cell viability: 102%
Calu-3 [13]; 100 nM
  cell viability: 101%
Calu-3 [13]; 1000 nM
  cell viability: 88.9%
Calu-3 [13]; 10000 nM
  cell viability: 58.6%
HepG2 [2]; 1 nM
  cell viability: 91.8%
HepG2 [2]; 10 nM
  cell viability: 96.5%
HepG2 [2]; 100 nM
  cell viability: 97.9%
HepG2 [2]; 1000 nM
  cell viability: 89.5%
HepG2 [2]; 10000 nM
  cell viability: 65.9%
U2OS [3]; 1 nM
  cell viability: 99.4%
U2OS [3]; 10 nM
  cell viability: 92.2%
U2OS [3]; 100 nM
  cell viability: 96.1%
U2OS [3]; 1000 nM
  cell viability: 88.6%
U2OS [3]; 10000 nM
  cell viability: 75.5%
Vero E6 [4]; 1 nM
  cell viability: 105%
Vero E6 [4]; 10 nM
  cell viability: 101%
Vero E6 [4]; 100 nM
  cell viability: 94.9%
Vero E6 [4]; 1000 nM
  cell viability: 91.8%
Vero E6 [4]; 10000 nM
  cell viability: 76.3%
U2OS [7]
  relative viability EC50: > 10 µM
Vero E6 [8]
  relative viability EC50: > 10 µM
Caco-2 [9]
  drug sensitivity score: 4.1
Calu-3 [14]
  drug sensitivity score: 3.8
HepG2 [10]
  drug sensitivity score: 3
U2OS [11]
  drug sensitivity score: 1.7
Vero E6 [12]
  drug sensitivity score: 1.4
